Data: PubChem BioAssay (NCI)
“And” between values parts separate entries of the source, which are not always exact repeats. Equal values may be shown once.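 Growth conditions: 96-well plates. Treatment: test compound, 48 hours, 5 concentrations. Analysis: linear interpolation between bracketing concentrations; unreached endpoints set to highest concentration. GI50 = concentration required for 50% inhibition of growth. The concentration for full growth arrest is given as TGI.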

Assays:
Assay in all cases: NCI-60 cell line screen, 48 h
A549 NSCLC = test system: A549 NSCLC
EKVX NSCLC = test system: EKVX NSCLC
HS 578T breast = test system: HS 578T breast
IGROV1 ovarian = test system: IGROV1 ovarian
MDA-MB-435 = test system: MDA-MB-435
RXF 393 renal = test system: RXF 393 renal
SF-268 CNS = test system: SF-268 CNS
UACC-62 melanoma = test system: UACC-62 melanoma

Structure (SMILES)	GI50 (A549 NSCLC) [µM]	TGI (A549 NSCLC) [µM]	GI50 (EKVX NSCLC) [µM]	TGI (EKVX NSCLC) [µM]	GI50 (HS 578T breast) [µM]	TGI (HS 578T breast) [µM]	GI50 (IGROV1 ovarian) [µM]	TGI (IGROV1 ovarian) [µM]	GI50 (MDA-MB-435) [µM]	TGI (MDA-MB-435) [µM]	GI50 (RXF 393 renal) [µM]	TGI (RXF 393 renal) [µM]	GI50 (SF-268 CNS) [µM]	TGI (SF-268 CNS) [µM]	GI50 (UACC-62 melanoma)	TGI (UACC-62 melanoma) [µM]
Nc1ccccc1C#C/C=C\C#Cc1ccccc1C(F)(F)F	0.722	15.5	0.895	15.2	1.26	25.2	1.34	> 55.8	0.355	1.3	1.1	9.98	1.67	20.4	0.255 µM	3.04
O=c1cccc(C#CC#C[C@H]2O[C@@H]2CO)o1	1.77	3.64	1.97	4.18	2.91	9.69	0.624	1.85	0.474	1.21	0.448	1.74	2.49	7.51	0.209 µM	0.531
O=C(O)c1cc2ccccc2c(O)c1O		38.5		51.1		45.4		34.7		3.33		31.7		32		13
Cc1ccc(C(=O)Nc2ccc(CN3CCN(C)CC3)c(C(F)(F)F)c2)cc1C#Cc1cnc(N)cc1C#N	0.233	0.958	0.366	1.44	0.143	1.33	0.0265	0.276	0.0721	0.659	0.129	0.706	0.2	1.2	0.031 µM	0.452
NC(=O)c1cnc(N[C@@H]2CCCC[C@@H]2N)nc1Nc1cccc(-n2nccn2)c1	3.58	14.3	6.04	18.9	3.37	20.7	4.01	14.3	3.03	10.9	2.34	8.05	5.82	19.7	5.48 µM	20.3
COc1ccccc1-[n+]1cc(-c2ccc(-c3ccccc3)cc2)n2c1CCCCC2	0.51	16.7	0.152	14.4	1.07	31.8	0.617	13.5	0.27	3.6	0.867	9.5	0.423	14.8	0.159 µM	1.8
CCCCn1c2cc(OCc3cn(-c4ccc(Cl)cc4)nn3)ccc2c2ccnc(C)c21	8	> 33.3	6.93	> 33.3	7.09	32.1	9.02	> 33.3	9.47	> 33.3	6.5	19.8	9.15	> 33.3	4.96 µM	11.8
CC12CCC3C(CC=C4CC(O)CCC43C)C1C/C(=C\N1CCCC1)C2=O (configuration not stated)	> 100	> 100	46.6	> 100	60.8	> 100	51.8	> 100	> 100	> 100	41.8	> 100	> 100	> 100	41.2 µM	> 100
O=C1CCC(Cc2ccc(Cl)cc2Cl)C(=O)N1 (configuration not stated)		> 100		> 100		> 100		> 100		> 100		> 100		> 100		> 100
O=C(/C=C/c1cccnc1)NCCCCC1CCN(C(=O)c2ccccc2)CC1	0.166	> 100	> 66.9	> 100	> 100	> 100	> 47.3	> 100	< 0.01	> 100	> 100	> 100	> 100	> 100	70.3 µM and > 58 µM	> 100
CC1=C([Se]CC(OC(=O)CC[Se]c2ccccc2)C(=O)NCCCCCC(=O)OCc2ccccc2)C(=O)c2ccccc2C1=O (configuration not stated)	2.56	6.72	2.96	29.2	2.47	34.2	1.31	4.11	2.45	7.45	1.91	5.64	2.5	6.31	1.83 µM	4.39
O=c1c2ccccc2c2ccccc2c(=O)n1-c1cc2c3ccccc3ccc2c2ccccc12		> 100		> 100		> 100		> 100		> 100		> 100		> 100		> 100
O=Cc1c(-c2cc(O)ccc2O)nc2sccn12	25.7	> 100	28.4	93.1	35.7	> 100	9.04	29.5	15.6	34.2	7.83	26.6	3.83	38.3	10.6 µM	32
Cc1c(C#N)cccc1-c1cc(-c2cn(Cc3cccc(C(C)(C)O)n3)nn2)nc(N)n1	26.9	> 100	27.8	> 100	25.6	> 100	14.4	> 100	26.8	> 100	22.9	> 100	45.4	> 100	12 µM	57.9
C=C1C(=O)O[C@H]2[C@H]1CC/C(COC(=O)NCc1cc3ccccc3[nH]1)=C\CC[C@@]1(C)O[C@@H]21	10.3	27.2	1.64	3.53	2.8	15.6	1.46	3.46	1.75	3.48	1.09	2.36	2.08	5.4	1.62 µM	3.2
CCN(CC)c1ccc(/C=C\c2cc(C)c3cc(C)ccc3n2)cc1	4.98	> 100	45.6	> 100	5.32	48.4	7.34	> 100	2.1	> 100	3.99	> 100	6.48	> 100	3.92 µM	> 100
